In the supplement of paper PMC10307832:

Legend:
Assay in all cases: relative viability (nuclei count vs DMSO), 5 days (fraction); higher = more cells survive
[1] = compound: CCn1c(-c2nonc2N)nc2cnc(Oc3cccc(NC(=O)c4ccc(OCCN5CCOCC5)cc4)c3)cc21 + C[C@]1(O)C[C@@H](c2nc(-c3ccc4ccc(-c5ccccc5)nc4c3)c3c(N)nccn32)C1 [Linsitinib] (partner 1 µM)
In short: (§1)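 The day after seeding in 1536-well plates, lung cancer cell lines were treated by pin tool with a single drug, or with a fixed anchor-drug dose together with five library-drug doses (not always all listed) in √10 steps. After 5 days, a combined fix-and-stain solution (final 0.05% Triton X-100, 1% formaldehyde, 1 ug/ml Hoechst) was added. Nuclei counted on 4× images gave relative viability as treated counts over vehicle counts, reported as the median of duplicate plates.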

Mirin + Luminespib = compound: N=C1NC(=O)/C(=C/c2ccc(O)cc2)S1 [Mirin] + CCNC(=O)c1noc(-c2cc(C(C)C)c(O)cc2O)c1-c1ccc(CN2CCOCC2)cc1 [Luminespib] (partner 0.01 µM)
In short: as §1

Mirin + Pemetrexed = compound: N=C1NC(=O)/C(=C/c2ccc(O)cc2)S1 [Mirin] + Nc1nc2[nH]cc(CCc3ccc(C(=O)N[C@@H](CCC(=O)O)C(=O)O)cc3)c2c(=O)[nH]1 [Pemetrexed] (partner 0.2 µM)
In short: as §1

Mirin + OSI-027 = compound: N=C1NC(=O)/C(=C/c2ccc(O)cc2)S1 [Mirin] + COc1cccc2cc(-c3nc([C@H]4CC[C@H](C(=O)O)CC4)n4ncnc(N)c34)[nH]c12 [OSI-027] (partner 0.5 µM)
In short: as §1

Cell Line	relative viability ([1]; first compound 0.04 µM)	relative viability ([1]; first compound 0.1265 µM)	relative viability ([1]; first compound 0.4 µM)	relative viability ([1]; first compound 1.265 µM)	relative viability ([1]; first compound 4 µM)	relative viability (Mirin + Luminespib; first compound 0.25 µM)	relative viability (Mirin + Luminespib; first compound 0.7906 µM)	relative viability (Mirin + Luminespib; first compound 2.5 µM)	relative viability (Mirin + Luminespib; first compound 7.906 µM)	relative viability (Mirin + Luminespib; first compound 25 µM)	relative viability (Mirin + Pemetrexed; first compound 0.25 µM)	relative viability (Mirin + Pemetrexed; first compound 0.7906 µM)	relative viability (Mirin + Pemetrexed; first compound 2.5 µM)	relative viability (Mirin + Pemetrexed; first compound 7.906 µM)	relative viability (Mirin + Pemetrexed; first compound 25 µM)	relative viability (Mirin + OSI-027; first compound 0.25 µM)	relative viability (Mirin + OSI-027; first compound 0.7906 µM)	relative viability (Mirin + OSI-027; first compound 7.906 µM)	relative viability (Mirin + OSI-027; first compound 25 µM)	relative viability (Mirin + OSI-027; first compound 2.5 µM)
201T	1.01	1.05	1.03	1.03	1.1	1.05	1.11	1.08	1.09	1.14	0.307	0.309	0.337	0.336	0.302	0.75	0.832	0.629	0.64	–
A549	0.726	0.662	0.733	0.178	0.319	–	–	–	–	–	–	–	–	–	–	–	–	–	–	–
A-427	1.2	1.16	1.15	1.06	1.06	0.756	1.01	0.905	0.89	0.952	1	0.957	1.02	0.991	0.934	0.484	–	0.272	0.411	0.525
ABC-1	1.15	0.906	0.687	0.574	0.5	0.746	0.879	0.73	0.534	0.341	–	–	–	–	–	0.442	0.346	0.467	0.225	0.484
BEN	0.931	0.935	0.799	0.311	0.313	0.484	0.593	0.503	0.315	0.217	0.661	0.779	0.799	0.667	0.581	0.288	0.306	0.286	0.192	0.273
CAL-12T	1.12	1.01	0.768	0.704	0.731	0.364	–	0.369	0.696	0.548	1.15	1.11	1.15	1.29	1.37	0.797	–	0.695	0.525	0.681
COR-L23	1	0.785	0.521	0.172	0.148	0.763	0.726	0.609	0.626	0.499	0.2	0.204	0.209	0.187	0.204	0.803	0.816	0.69	0.728	0.761
COR-L 105	0.774	0.766	0.862	0.451	0.391	0.741	0.852	0.692	0.51	0.544	1.08	1.21	1.11	1.11	1.07	0.7	0.684	0.975	0.434	0.829
Calu-6	0.964	0.94	0.616	0.524	0.536	–	–	–	–	–	–	–	–	–	–	–	–	–	–	–
ChaGo-K-1	–	–	–	–	–	0.555	0.295	0.705	0.429	0.306	0.263	0.252	0.255	0.259	0.256	0.582	0.396	0.492	0.432	0.55
EBC-1	0.852	1.09	0.78	0.79	0.876	–	–	–	–	–	–	–	–	–	–	–	–	–	–	–
EKVX	1.42	1.02	1.08	0.813	0.976	0.868	0.754	0.907	0.74	0.886	0.379	0.318	0.397	0.502	0.346	0.691	0.672	0.591	0.67	0.761
EMC-BAC-2	1.03	0.839	0.814	0.834	0.877	1.08	1.13	1.13	1.17	1.1	0.475	0.431	0.452	0.375	0.41	0.389	0.378	0.307	0.312	0.337
EPLC-272H	1.35	1.12	1.14	1.1	1.18	0.176	–	0.311	0.198	0.185	0.371	0.307	0.309	0.323	0.192	0.339	–	0.213	0.224	0.241
H3255	1.2	0.952	0.99	0.62	0.768	0.825	0.79	0.943	0.712	0.821	0.525	0.605	0.626	0.54	0.571	0.558	0.536	0.475	0.616	0.636
HARA	1.04	0.733	1	0.634	0.698	0.808	–	0.693	0.773	0.372	0.235	–	0.236	0.227	0.293	0.491	–	0.356	0.437	0.56
HCC-15	1.15	0.88	0.901	0.825	0.883	0.353	0.391	0.289	0.452	0.274	0.217	0.233	0.218	0.196	0.203	0.81	0.557	0.585	0.466	0.614
HCC-44	0.671	0.709	0.684	0.538	0.509	0.968	1.19	0.805	0.939	1.05	0.604	0.835	0.677	0.633	0.694	0.441	0.491	0.428	0.485	0.483
HCC-78	0.673	0.498	0.551	0.664	0.621	–	–	–	–	–	0.952	0.882	0.882	0.903	0.871	0.37	0.366	0.292	0.349	0.419
HCC-366	0.435	0.64	0.597	0.0751	0.0223	–	–	–	–	–	0.178	0.251	0.177	0.167	0.218	0.974	–	0.711	0.882	0.919
HCC-827	0.974	0.907	0.94	0.992	0.823	0.673	0.665	0.724	0.841	1.03	0.246	0.258	0.224	0.254	0.282	0.785	0.71	0.737	0.744	0.748

Cell Line	relative viability ([1]; first compound 0.04 µM)	relative viability ([1]; first compound 0.1265 µM)	relative viability ([1]; first compound 0.4 µM)	relative viability ([1]; first compound 1.265 µM)	relative viability ([1]; first compound 4 µM)	relative viability (Mirin + Luminespib; first compound 0.25 µM)	relative viability (Mirin + Luminespib; first compound 0.7906 µM)	relative viability (Mirin + Luminespib; first compound 2.5 µM)	relative viability (Mirin + Luminespib; first compound 7.906 µM)	relative viability (Mirin + Luminespib; first compound 25 µM)	relative viability (Mirin + Pemetrexed; first compound 0.25 µM)	relative viability (Mirin + Pemetrexed; first compound 0.7906 µM)	relative viability (Mirin + Pemetrexed; first compound 2.5 µM)	relative viability (Mirin + Pemetrexed; first compound 7.906 µM)	relative viability (Mirin + Pemetrexed; first compound 25 µM)	relative viability (Mirin + OSI-027; first compound 0.25 µM)	relative viability (Mirin + OSI-027; first compound 0.7906 µM)	relative viability (Mirin + OSI-027; first compound 7.906 µM)	relative viability (Mirin + OSI-027; first compound 25 µM)	relative viability (Mirin + OSI-027; first compound 2.5 µM)
HOP-62	1.22	1.27	0.808	0.595	1.02	0.956	0.987	0.923	1.05	1.03	0.36	0.286	0.316	0.288	0.361	0.836	0.787	0.663	0.688	0.846
IA-LM	0.95	0.8	0.658	0.54	0.681	–	–	–	–	–	–	–	–	–	–	–	–	–	–	–
LC-2-ad	0.936	0.899	0.756	0.55	0.352	1.02	0.837	1.05	0.968	0.721	0.266	0.271	0.254	0.288	0.264	0.851	0.776	0.567	0.492	0.822
LCLC-97TM1	0.221	0.204	–	0.206	0.181	0.672	0.646	0.679	0.63	0.495	0.161	0.128	0.14	0.149	0.127	0.455	0.263	0.291	0.292	0.341
LCLC-103H	1.12	1.07	0.902	1.05	1.03	0.931	1.06	0.93	1.05	1	0.441	0.523	0.487	0.425	0.435	0.444	0.495	0.509	0.442	0.515
LK-2	0.522	0.691	0.572	0.342	0.74	0.148	–	0.19	0.153	0.133	0.129	–	0.257	0.164	0.257	0.195	0.154	0.138	0.146	0.198
LOU-NH91	1	0.748	0.744	0.632	0.611	0.304	0.301	0.351	0.322	0.295	0.375	0.389	0.357	0.399	0.376	0.737	0.769	0.731	0.832	0.751
LU99A	0.56	0.458	0.507	0.539	0.565	0.199	0.207	0.225	0.209	0.211	0.159	0.204	0.186	0.137	0.17	0.284	0.288	0.288	0.278	0.299
LXF-289	1.08	1.06	0.955	0.978	0.973	0.662	0.689	0.651	0.666	0.634	0.902	0.856	0.923	0.791	0.821	0.79	0.701	0.715	0.763	0.764
NCI-H23	0.636	0.827	–	0.549	0.477	0.21	0.186	0.2	0.234	0.186	0.782	–	0.643	0.598	0.541	0.725	–	0.443	0.589	0.544
NCI-H522	–	–	–	–	–	0.884	1.11	1.23	0.875	0.801	0.799	1.02	0.764	1	0.522	0.705	0.513	0.688	0.62	0.762
NCI-H727	0.265	0.379	0.406	0.506	0.268	0.515	0.307	0.453	0.265	0.316	–	–	–	–	–	0.833	0.596	0.586	0.877	0.529
NCI-H1299	0.987	0.858	0.777	0.47	0.769	–	–	–	–	–	–	–	–	–	–	–	–	–	–	–
NCI-H1623	–	–	–	–	–	0.547	0.506	0.574	0.449	0.325	–	–	–	–	–	0.444	0.442	0.336	0.376	0.421
NCI-H1648	–	–	–	–	–	–	–	–	–	–	0.76	–	0.853	0.678	0.55	0.279	0.276	0.261	0.26	0.232
NCI-H1650	–	–	–	–	–	0.183	0.176	0.175	0.18	0.179	0.339	0.382	0.377	0.324	0.359	0.577	0.601	0.643	0.403	0.729
NCI-H1703	0.709	0.838	0.436	0.464	0.294	–	–	–	–	–	–	–	–	–	–	–	–	–	–	–
NCI-H2170	–	–	–	–	–	0.828	0.656	0.934	0.693	0.663	0.249	0.282	0.268	0.263	0.28	0.716	0.642	0.653	0.787	0.784
NCI-H2342	–	–	–	–	–	0.671	0.815	0.753	0.592	0.7	0.728	0.801	0.769	–	0.735	0.618	0.634	0.489	0.558	0.579
SW 900	–	–	–	–	–	0.164	0.178	0.206	0.174	0.154	0.505	0.494	0.47	0.494	0.48	0.487	0.597	0.434	0.75	0.701
